# Tested on: 695427-040-R-J1-PDC complex spheroid viability
# Assay: Anticancer human tumor 695427-040-R-J1-PDC patient-derived colon adenocarcinoma cell line growth inhibition [RAS]
# Conditions: for viability, T/C: stronger effect = lower value
# How it was run: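 Multi-cell-type spheroids: tumor cells plus HUVEC endothelial cells and mesenchymal stem cells. RAS-pathway inhibitors were combined with targeted agents, each dosed in half-log steps down from clinical Cmax, or from 10 microM when Cmax was unknown.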
# [1] = curve of first compound, second compound 0.00316 µM
# [2] = curve of first compound, second compound 0.01 µM
# [3] = curve of first compound, second compound 0.0316 µM
# [4] = curve of first compound, second compound 0.1 µM
# [5] = curve of first compound, second compound 0.316 µM
# [6] = curve of first compound, second compound 1 µM
# [7] = second compound 0.00316 µM, first compound 0.0316 µM
# [8] = second compound 0.00316 µM, first compound 0.1 µM
# [9] = second compound 0.00316 µM, first compound 0.316 µM
# [10] = second compound 0.00316 µM, first compound 1 µM
# [11] = second compound 0.01 µM, first compound 0.0316 µM
# [12] = second compound 0.01 µM, first compound 0.1 µM
# [13] = second compound 0.01 µM, first compound 0.316 µM
# [14] = second compound 0.01 µM, first compound 1 µM
# [15] = second compound 0.0316 µM, first compound 0.0316 µM
# [16] = second compound 0.0316 µM, first compound 0.1 µM
# [17] = second compound 0.0316 µM, first compound 0.316 µM
# [18] = second compound 0.0316 µM, first compound 1 µM
# [19] = second compound 0.1 µM, first compound 0.0316 µM
# [20] = second compound 0.1 µM, first compound 0.1 µM
# [21] = second compound 0.1 µM, first compound 0.316 µM
# [22] = second compound 0.1 µM, first compound 1 µM
# [23] = second compound 0.316 µM, first compound 0.0316 µM
# [24] = second compound 0.316 µM, first compound 0.1 µM
# [25] = second compound 0.316 µM, first compound 0.316 µM
# [26] = second compound 0.316 µM, first compound 1 µM
# [27] = second compound 1 µM, first compound 0.0316 µM
# [28] = second compound 1 µM, first compound 0.1 µM
# [29] = second compound 1 µM, first compound 0.316 µM
# [30] = second compound 1 µM, first compound 1 µM
# 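Also: viability read after seven days of drug exposure.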
# 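For viability, T/C in this document: 100% = DMSO vehicle control viability.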
smiles,measurement,setting,value
C=CC(=O)Nc1cc(Nc2nccc(-c3cn(C)c4ccccc34)n2)c(OC)cc1N(C)CCN(C)C + C=CC(=O)N1CCN(c2nc(OCC3CCCN3C)nc3c(F)c(-c4nc(N)cc(C)c4C(F)(F)F)c(Cl)cc23)C(C)C1,IC50,[1],0.406 µM
same,IC50,[2],0.5 µM
same,IC50,[3],0.403 µM
same,IC50,[4],0.429 µM
same,IC50,[5],0.457 µM
same,IC50,[6],0.429 µM
same,"viability, T/C","second compound 0.00316 µM, first compound 0.00316 µM",96.5%
same,"viability, T/C","second compound 0.00316 µM, first compound 0.01 µM",94.1%
same,"viability, T/C",[7],86.2%
same,"viability, T/C",[8],76.5%
same,"viability, T/C",[9],54.6%
same,"viability, T/C",[10],31.4%
same,"viability, T/C","second compound 0.01 µM, first compound 0.00316 µM",102%
same,"viability, T/C","second compound 0.01 µM, first compound 0.01 µM",94.5%
same,"viability, T/C",[11],83.7%
same,"viability, T/C",[12],72.2%
same,"viability, T/C",[13],57.5%
same,"viability, T/C",[14],39.2%
same,"viability, T/C","second compound 0.0316 µM, first compound 0.00316 µM",112%
same,"viability, T/C","second compound 0.0316 µM, first compound 0.01 µM",99.1%
same,"viability, T/C",[15],83.8%
same,"viability, T/C",[16],71%
same,"viability, T/C",[17],58.2%
same,"viability, T/C",[18],32.7%
same,"viability, T/C","second compound 0.1 µM, first compound 0.00316 µM",94.7%
same,"viability, T/C","second compound 0.1 µM, first compound 0.01 µM",100%
same,"viability, T/C",[19],88%
same,"viability, T/C",[20],76.4%
same,"viability, T/C",[21],56.7%
same,"viability, T/C",[22],33%
same,"viability, T/C","second compound 0.316 µM, first compound 0.00316 µM",105%
same,"viability, T/C","second compound 0.316 µM, first compound 0.01 µM",94.7%
same,"viability, T/C",[23],84.6%
same,"viability, T/C",[24],80.3%
same,"viability, T/C",[25],60.1%
same,"viability, T/C",[26],30.2%
same,"viability, T/C","second compound 1 µM, first compound 0.00316 µM",90.3%
same,"viability, T/C","second compound 1 µM, first compound 0.01 µM",95.5%
same,"viability, T/C",[27],88.5%
same,"viability, T/C",[28],80.7%
same,"viability, T/C",[29],58.1%
same,"viability, T/C",[30],27.6%
CC(=O)OC12COC1CC(O)C1(C)C(=O)C(O)C3=C(C)C(OC(=O)C(O)C(NC(=O)OC(C)(C)C)c4ccccc4)CC(O)(C(OC(=O)c4ccccc4)C21)C3(C)C (stereo not given) + CCn1c(-c2cccnc2C(C)OC)c2c3cc(ccc31)N1CCOC(CC(NC(=O)C(C(C)C)N(C)C(=O)C3(F)CCN(C(=O)C#CC(C)(C)N(C)C)CC3)C(=O)N3CCCC(N3)C(=O)OCC(C)(C)C2)C1,IC50,"curve of first compound, second compound 0.000949 µM",> 10 µM
same,IC50,"curve of first compound, second compound 0.003 µM",> 10 µM
same,IC50,"curve of first compound, second compound 0.00949 µM",> 10 µM
same,IC50,"curve of first compound, second compound 0.03 µM",> 10 µM
same,IC50,"curve of first compound, second compound 0.0949 µM",> 10 µM
same,IC50,"curve of first compound, second compound 0.3 µM",> 10 µM
same,"viability, T/C","second compound 0.000949 µM, first compound 0.0316 µM",81%
same,"viability, T/C","second compound 0.000949 µM, first compound 0.1 µM",73.9%
same,"viability, T/C","second compound 0.000949 µM, first compound 0.316 µM",76%
same,"viability, T/C","second compound 0.000949 µM, first compound 1 µM",61.4%
same,"viability, T/C","second compound 0.000949 µM, first compound 3.16 µM",65.3%
same,"viability, T/C","second compound 0.000949 µM, first compound 10 µM",73.5%
same,"viability, T/C","second compound 0.003 µM, first compound 0.0316 µM",95.7%
same,"viability, T/C","second compound 0.003 µM, first compound 0.1 µM",77.1%
same,"viability, T/C","second compound 0.003 µM, first compound 0.316 µM",61.1%
same,"viability, T/C","second compound 0.003 µM, first compound 1 µM",64.1%
same,"viability, T/C","second compound 0.003 µM, first compound 3.16 µM",70.8%
same,"viability, T/C","second compound 0.003 µM, first compound 10 µM",66.9%
same,"viability, T/C","second compound 0.00949 µM, first compound 0.0316 µM",107%
same,"viability, T/C","second compound 0.00949 µM, first compound 0.1 µM",61%
same,"viability, T/C","second compound 0.00949 µM, first compound 0.316 µM",67.4%
same,"viability, T/C","second compound 0.00949 µM, first compound 1 µM",69.3%
same,"viability, T/C","second compound 0.00949 µM, first compound 3.16 µM",78.5%
same,"viability, T/C","second compound 0.00949 µM, first compound 10 µM",69%
same,"viability, T/C","second compound 0.03 µM, first compound 0.0316 µM",83.6%
same,"viability, T/C","second compound 0.03 µM, first compound 0.1 µM",71.9%
same,"viability, T/C","second compound 0.03 µM, first compound 0.316 µM",61%
same,"viability, T/C","second compound 0.03 µM, first compound 1 µM",68.4%
same,"viability, T/C","second compound 0.03 µM, first compound 3.16 µM",78.8%
same,"viability, T/C","second compound 0.03 µM, first compound 10 µM",77%
same,"viability, T/C","second compound 0.0949 µM, first compound 0.0316 µM",77.7%
same,"viability, T/C","second compound 0.0949 µM, first compound 0.1 µM",51.4%
same,"viability, T/C","second compound 0.0949 µM, first compound 0.316 µM",67.1%
same,"viability, T/C","second compound 0.0949 µM, first compound 1 µM",57.4%
same,"viability, T/C","second compound 0.0949 µM, first compound 3.16 µM",76%
same,"viability, T/C","second compound 0.0949 µM, first compound 10 µM",82.4%
same,"viability, T/C","second compound 0.3 µM, first compound 0.0316 µM",76.8%
same,"viability, T/C","second compound 0.3 µM, first compound 0.1 µM",60.1%
same,"viability, T/C","second compound 0.3 µM, first compound 0.316 µM",68.1%
same,"viability, T/C","second compound 0.3 µM, first compound 1 µM",51.7%
same,"viability, T/C","second compound 0.3 µM, first compound 3.16 µM",43.9%
same,"viability, T/C","second compound 0.3 µM, first compound 10 µM",71.1%
CCn1c(-c2cccnc2C(C)OC)c2c3cc(ccc31)N1CCOC(CC(NC(=O)C(C(C)C)N(C)C(=O)C3(F)CCN(C(=O)C#CC(C)(C)N(C)C)CC3)C(=O)N3CCCC(N3)C(=O)OCC(C)(C)C2)C1 (stereo not given),"viability, T/C",compound 0.000949 µM,94% [middle of 8 runs]
same,"viability, T/C",compound 0.03 µM,95.8% [middle of 8 runs]
same,"viability, T/C",compound 0.0949 µM,102% [middle of 8 runs]
same,IC50,"compound alone, run of 05/20/2024",> 0.3 µM
Cc1nc(N2CCC3(CC2)COC(C)C3N)c(CO)nc1Sc1ccnc(N)c1Cl (stereo not given) + C=CC(=O)N1CCN(c2nc(OCC3CCCN3C)nc3c(F)c(-c4nc(N)cc(C)c4C(F)(F)F)c(Cl)cc23)C(C)C1,IC50,[1],> 10 µM
same,IC50,[2],> 10 µM
same,IC50,[3],> 10 µM
same,IC50,[4],> 10 µM
same,IC50,[5],> 10 µM
same,IC50,[6],9.77 µM
same,"viability, T/C",[7],87%
same,"viability, T/C",[8],80.8%
same,"viability, T/C",[9],70.6%
same,"viability, T/C",[10],71%
same,"viability, T/C","second compound 0.00316 µM, first compound 3.16 µM",64.5%
same,"viability, T/C","second compound 0.00316 µM, first compound 10 µM",59.6%
same,"viability, T/C",[11],91.6%
same,"viability, T/C",[12],78.9%
same,"viability, T/C",[13],71.9%
same,"viability, T/C",[14],68.7%
same,"viability, T/C","second compound 0.01 µM, first compound 3.16 µM",64.5%
same,"viability, T/C","second compound 0.01 µM, first compound 10 µM",51.9%
same,"viability, T/C",[15],88.8%
same,"viability, T/C",[16],79%
same,"viability, T/C",[17],71.8%
same,"viability, T/C",[18],67.6%
same,"viability, T/C","second compound 0.0316 µM, first compound 3.16 µM",63%
same,"viability, T/C","second compound 0.0316 µM, first compound 10 µM",54.9%
same,"viability, T/C",[19],85.1%
same,"viability, T/C",[20],78.7%
same,"viability, T/C",[21],78.6%
same,"viability, T/C",[22],67.5%
same,"viability, T/C","second compound 0.1 µM, first compound 3.16 µM",65.2%
same,"viability, T/C","second compound 0.1 µM, first compound 10 µM",57.7%
same,"viability, T/C",[23],81.1%
same,"viability, T/C",[24],81.4%
same,"viability, T/C",[25],75.4%
same,"viability, T/C",[26],68.6%
same,"viability, T/C","second compound 0.316 µM, first compound 3.16 µM",65.3%
same,"viability, T/C","second compound 0.316 µM, first compound 10 µM",55.4%
same,"viability, T/C",[27],86.8%
same,"viability, T/C",[28],80.3%
same,"viability, T/C",[29],68.6%
same,"viability, T/C",[30],59.9%
same,"viability, T/C","second compound 1 µM, first compound 3.16 µM",60.5%
same,"viability, T/C","second compound 1 µM, first compound 10 µM",47.5%

# Source: PubChem BioAssay AID2060888 (Molecular Pharmacology Branch, DTP, NCI, 2025)
